Assay results published in ChEMBL document CHEMBL2151028, “Analysis of the mushroom nephrotoxin orellanine and its glucosides” (J Nat Prod, 2012).

Legend:
Assay type in all cases: organism-based
Conditions in all cases: in vivo
[1] = Acute toxicity in ip dosed rat
Homo sapiens = organism: Homo sapiens; assay: Acute toxicity in human
[2] = Acute toxicity in po dosed mouse

Compound `[O-][n+]1ccc(O)c(O)c1-c1c(O)c(O)cc[n+]1[O-]` [ORELLANINE] has an LD50 [1] of 5 mg/kg, an LD50 (Homo sapiens) of 29 g and an LD50 [2] of 12 mg/kg.
